# Assay results published in patent publication US20090137451A1, “Methods for Assessing Suitability of Cancer Patients for Treatment with Histone Deacetylase Inhibitors” (Agency for Science, Technology and Research, priority 2005, published 2009).
# Experiments:
# Type in all cases: cell-based, human
# [1] = tested on: ER-E2F1 expressing HCT116 p53 null cells; experiment: Cell death (sub-G1) by PI staining and FACS in ER-E2F1 expressing cells; conditions: for sub-G1 cells indicative of cell death: 48 h; for SAHA-induced apoptosis (cells in Sub-G1): in the presence of 4-OHT, SAHA 24 h
# Protocol: The effect of Bim-specific siRNA on HDACI-induced apoptosis upon E2F1 overexpression. (a) ER-E2F1 were transfected with nonspecific control siRNA (NC siRNA) or Bim-specific siRNA for 48 h, and then either left untreated (−) or treated with 4-OHT, SAHA or both for additional 24 h. […] Cell death was analyzed by flow cytometry following propidium iodide staining (right panel). The percentages of cells in Sub-G1 are indicated. (b) ER-E2F1 were transfected with nonspecific control siRNA (NC siRNA) or Bim-specific siRNA for 48 h, and then either left untreated (−) or treated with 4-OHT, 100 nM TSA or both for additional 48 h.
# Cells were harvested and fixed in 70% ethanol. Fixed cells were stained with propidium iodide (50 μg/ml) after treatment with RNase (100 μg/ml). The stained cells were analyzed for DNA content by fluorescence-activated cell sorting (FACS) in a FACScalibur (Becton Dickinson Instrument, San Jose, Calif.). Cell cycle fractions were quantified using the CellQuest software (Becton Dickinson).
# To definitively establish the role of Bim in HDACIs-induced apoptosis upon E2F1 activation, we used RNA interference to silence Bim expression and analyzed its biological effects. To this end, we transfected ER-E2F1 expressing cells with Bim-specific siRNA and treated with SAHA for 24 h in the presence or absence of 4-OHT. As controls, cells were also transfected with an irrelevant siRNA.
# [2] = tested on: transformed IMR90-E1A cells; experiment: Cell proliferation, dose-response, transformed IMR90-E1A cells; conditions: dose-response study, FIG. 5b
# Protocol: (§1) FIG. 5. Rb inactivation enhances Bim expression and sensitizes HDACIs-induced apoptosis. (a) U2OS cells were infected with Ad-E1A or Ad-LacZ for 24 h and treated with SAHA (1 μM) for additional 48 h. Cell death was determined by FACS analysis (right panel), and the levels of Bim and p73 were assessed by immunoblotting using antibodies against the indicated proteins (left panel). (b) Normal IMR90 and transformed IMR90-E1A cells were treated with SAHA at indicated concentrations and cell proliferation was evaluated for indicated times. (c) Expression of E1A results in upregulation of Bim and apoptosis potentiation in response to SAHA and TSA. IMR90 and IMR90-E1A cells were treated with SAHA (2.5 μM) and TSA (300 nM) for 48 h. Cell death was determined by FACS analysis (left panel), and the levels of Bim and p73 were assessed by immunoblotting using antibodies against indicated proteins (right panel). (d) IMR90-E1A cells transfected with Bim siRNA or control siRNA (NC siRNA) were treated with TSA (800 nM) for 24 h. The expressions of Bim and β-actin were assessed by immunoblotting using antibodies against the indicated proteins. Apoptosis was evaluated by FACS analysis. […] The expressions of E2F1, Bim and PARP were assessed by immunoblotting using antibodies against the indicated proteins. […] Apoptosis was evaluated by FACS analysis. […]
# normal IMR90 cells = experiment: Cell proliferation, dose-response, normal IMR90 cells; conditions: dose-response study, FIG. 5b
# Protocol: as §1
# ER-E2F1 expressing cells = experiment: Colony formation assay; conditions: 100 nM TSA or 1 μM SAHA for 24 h, with 4-OHT; colonies stained with crystal violet
# Protocol: FIG. 1. HDACIs SAHA and TSA promote E2F1-mediated cell death (a) p53 null HCT116-ER-E2F1 expressing cells or control ER expressing cells were treated with or without 4-OHT. Cyclin E and p73 expression were evaluated by immunoblot analysis. (b) ER-E2F1 expressing or control cells were treated with 1 μM SAHA (left panel) or 100 nM TSA (right panel), in the presence or absence of 4-OHT. After 48 h, cells were harvested and cell death was assessed by PI staining using FACS. Mean results of three independent experiments were shown with standard deviations. (c) Colony formation assay. […] (d) Saos-2 and HCT116 cells infected with adenovirus containing E2F1 or LacZ as indicated were treated with 100 nM TSA for 24 h, and cell death was analyzed by FACS.
# 1000 cells were plated per well of a 6-well plate for 24-48 h and then followed by 100 nM TSA or 1 μM SAHA treatment in the presence or absence of 4-OHT. […] Colonies were stained with crystal violet and counted after 12 days.
# To investigate whether E2F1 activation induces sensitization of cells to HDACIs-induced cell death, we analyzed the cell cycle profiles by FACS (fluorescence-activated cell sorter) in ER-E2F1 expressing HCT116 p53 null cells (ER-E2F1) and the control cells expressing ER-binding domain only (ER) following treatment with the HDACIs SAHA or TSA in the presence or absence of 4-OHT. […]
# [3] = tested on: E1A-transformed IMR90 cells; experiment: Apoptosis by FACS analysis in E1A-transformed IMR90 cells; conditions: SAHA 2.5 μM, TSA 300 nM; 48 h
# Protocol: FIG. 5. Rb inactivation enhances Bim expression and sensitizes HDACIs-induced apoptosis. (a) U2OS cells were infected with Ad-E1A or Ad-LacZ for 24 h and treated with SAHA (1 μM) for additional 48 h. Cell death was determined by FACS analysis (right panel), and the levels of Bim and p73 were assessed by immunoblotting using antibodies against the indicated proteins (left panel). (b) Normal IMR90 and transformed IMR90-E1A cells were treated with SAHA at indicated concentrations and cell proliferation was evaluated for indicated times. (c) Expression of E1A results in upregulation of Bim and apoptosis potentiation in response to SAHA and TSA. […] Cell death was determined by FACS analysis (left panel), and the levels of Bim and p73 were assessed by immunoblotting using antibodies against indicated proteins (right panel). […] The expressions of Bim and β-actin were assessed by immunoblotting using antibodies against the indicated proteins. Apoptosis was evaluated by FACS analysis. […] The expressions of E2F1, Bim and PARP were assessed by immunoblotting using antibodies against the indicated proteins. […] Apoptosis was evaluated by FACS analysis.
# Cells were harvested and fixed in 70% ethanol. […] The stained cells were analyzed for DNA content by fluorescence-activated cell sorting (FACS) in a FACScalibur (Becton Dickinson Instrument, San Jose, Calif.). […]
# [4] = agent alone, 1 μM SAHA, PI staining FACS
# [5] = both 4-OHT and HDACI (1 μM SAHA or 100 nM TSA)
Compound,"sub-G1 cells indicative of cell death [1, 4]","sub-G1 cells indicative of cell death [1, 5]",SAHA-induced apoptosis (cells in Sub-G1) ([1]; cells treated with Bim siRNA),SAHA-induced apoptosis (cells in Sub-G1) ([1]; control siRNA treated cells),proliferation [2],proliferation (normal IMR90 cells),effect of E2F1 activation by 4-OHT on HDACI-induced growth inhibition (ER-E2F1 expressing cells),apoptosis [3]
4-hydroxytamoxifen [4-OHT],approximately 13%,–,–,–,–,–,–,–
"O=C(CCCCCCC(=O)Nc1ccccc1)NO [SAHA, suberoylanilide hydroxamic acid]",~23%,75%,18%,49%,substantially inhibited proliferation,substantially inhibited proliferation,greatly promoted,~60%
"CC(/C=C/C(=O)NO)=C\[C@@H](C)C(=O)c1ccc(N(C)C)cc1 [TSA, Trichostatin A]",–,Identical results,–,–,–,–,greatly promoted,~60%
